Assay [1] concerns the target T1, C-RAF (Homo sapiens, UniProt P04049). The assay can be described thus: HotSpot kinase assay (RBC), C-RAF. The conditions noted are these: IC50 C-RAF, 10 µM ATP, 10-dose singlicate IC50 mode.
From the text: Reaction Biology Corporation (RBC) Kinase HotSpotSM service was utilized for cell-free biochemical kinase evaluation of the target compounds according to the reported assay protocol [46].
In assay [2] the target is T2, B-RAF^V600E (Homo sapiens, UniProt P15056, V600E).
T2 construct: purchased Reaction Biology Corporation (RBC), Kinase HotSpot service
The assay can be described thus: HotSpot kinase assay (RBC), B-RAF^V600E. The conditions noted are these: 10 µM ATP, 10-dose singlicate IC50 mode. The assay is classed as biochemical.

The subject of assay [3] is EGFR. Also on record: method as in PMID 24588073. The conditions noted are these: cited from earlier work.
The test system of assay [4] is RAF. Set-up: method as in PMID 28368067. The conditions noted are these: cited from earlier work.
The subject of assay [5] is B-RAF. Also on record: method as in PMID 25461318. Conditions: cited from earlier work.
Assay [6] deals with T1, C-RAF. Conditions: at 10 µM; cited from earlier work.
For assay [7], the system named is B-RAF^WT. Set-up: method as in PMID 25835317. Conditions: cited from earlier work.
Assay [8] concerns Src. Also on record: method as in PMID 25835317. The conditions noted are these: cited from earlier work.
The target in assay [9] is T2, B-RAF^V600E. Conditions: cited from earlier work.
Assay [10] deals with T2, B-RAF^V600E. Also on record: method as in PMID 24900673, PMID 33780623. Conditions: cited from earlier work.

Read-outs that look alike come from different tables or passages of the source.

T2 sequence (P15056 whole entry V600E): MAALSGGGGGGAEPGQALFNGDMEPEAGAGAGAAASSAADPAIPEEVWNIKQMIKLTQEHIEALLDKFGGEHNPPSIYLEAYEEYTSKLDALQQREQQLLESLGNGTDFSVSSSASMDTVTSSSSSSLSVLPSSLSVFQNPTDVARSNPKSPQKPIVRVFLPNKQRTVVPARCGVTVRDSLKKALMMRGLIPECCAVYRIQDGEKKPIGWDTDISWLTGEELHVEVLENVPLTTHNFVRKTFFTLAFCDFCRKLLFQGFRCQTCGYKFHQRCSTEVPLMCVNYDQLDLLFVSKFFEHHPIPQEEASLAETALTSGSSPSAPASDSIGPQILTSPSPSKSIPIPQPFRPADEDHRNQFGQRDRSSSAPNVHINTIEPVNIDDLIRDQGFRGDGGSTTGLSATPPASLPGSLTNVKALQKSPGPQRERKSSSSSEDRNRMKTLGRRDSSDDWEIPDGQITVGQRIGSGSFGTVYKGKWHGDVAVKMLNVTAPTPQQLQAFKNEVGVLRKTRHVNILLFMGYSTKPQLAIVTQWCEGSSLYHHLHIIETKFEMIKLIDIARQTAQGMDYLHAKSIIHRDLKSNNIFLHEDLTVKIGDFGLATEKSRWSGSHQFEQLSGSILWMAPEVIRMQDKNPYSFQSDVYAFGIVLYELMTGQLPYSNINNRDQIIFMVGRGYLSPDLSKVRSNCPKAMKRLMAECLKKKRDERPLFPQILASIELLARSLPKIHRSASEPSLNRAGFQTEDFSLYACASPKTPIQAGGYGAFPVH
T1 sequence (P04049 whole entry): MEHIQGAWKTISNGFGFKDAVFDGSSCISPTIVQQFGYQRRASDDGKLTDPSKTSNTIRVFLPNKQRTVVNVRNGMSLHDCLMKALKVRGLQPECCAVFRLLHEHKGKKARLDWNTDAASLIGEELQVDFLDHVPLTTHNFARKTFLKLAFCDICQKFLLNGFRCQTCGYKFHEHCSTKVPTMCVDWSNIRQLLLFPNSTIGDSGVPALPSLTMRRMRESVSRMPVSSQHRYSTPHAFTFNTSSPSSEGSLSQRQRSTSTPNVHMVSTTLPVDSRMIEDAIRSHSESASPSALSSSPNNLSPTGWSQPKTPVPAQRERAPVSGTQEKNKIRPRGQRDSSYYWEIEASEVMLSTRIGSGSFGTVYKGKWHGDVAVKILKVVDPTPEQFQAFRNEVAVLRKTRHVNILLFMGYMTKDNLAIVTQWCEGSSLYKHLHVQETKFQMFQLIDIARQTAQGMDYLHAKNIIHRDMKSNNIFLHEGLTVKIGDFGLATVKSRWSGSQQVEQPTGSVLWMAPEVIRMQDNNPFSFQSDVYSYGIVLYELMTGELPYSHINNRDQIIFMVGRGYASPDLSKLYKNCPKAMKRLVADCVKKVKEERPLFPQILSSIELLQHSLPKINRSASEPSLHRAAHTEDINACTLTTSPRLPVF

As to `COc1ccc2nc(Nc3cccc(NC(=O)c4ccc(CN5CCCN(C)CC5)c(C(F)(F)F)c4)c3)ccc2c1` [Compound 16b, N-(3-((6-methoxyquinolin-2-yl)amino)phenyl)-4-((4-methyl-1,4-diazepan-1-yl)methyl)-3-(trifluoromethyl)benzamide], the values for the IC50 in assay [1] and in [2] were 164 ± 6.05 nM and 308 ± 14.9 nM, respectively.
On to `Cc1ccc(C(=O)Nc2ccc(CN3CCN(C)CC3)c(C(F)(F)F)c2)cc1NC(=O)c1cnc2[nH]ccc2c1` [Compound IV], for which the IC50 (commonly the point on the concentration scale where inhibition reaches its midpoint) in assay [3] is 8 nM.
For the compound `Cc1ccc(C(=O)Nc2ccc(Cl)c(C(F)(F)F)c2)cc1NC(=O)C1(c2ccnc(NCCN3CCN(C)CC3)n2)CC1` [III], the “IC50 values, pan-RAF” value in assay [4] is “two digits nanomolar”.
In the case of `O=C(Nc1ccc(Cl)c(C(F)(F)F)c1)c1ccc(Cl)c(C(=O)Nc2ccc(-c3ncc[nH]3)nc2)c1` [II], the IC50 in [5] is 531 nM.
Turning to `COc1cc2cc(Oc3ccc(NC(=O)c4cc(C(F)(F)F)cc(C(F)(F)F)c4)cc3)c(C)nc2cc1OC` [VI], the “inhibition of C-RAF” value in assay [6] is listed as 77%.
As to `CCn1nc(C#Cc2cc(C(=O)Nc3ccc(CN4CCN(C)CC4)c(C(F)(F)F)c3)ccc2C)c2c(N)ncnc21` [V], the IC50 is 15 nM in assay [7], 0.9 nM in assay [8] and 92 nM in [9].
In the case of `CC(C)(C)c1nc(-c2cccc(NS(=O)(=O)c3c(F)cccc3F)c2F)c(-c2ccnc(N)n2)s1` [dabrafenib], the “selectivity against B-RAF^V600E than its wild type” value in assay [10] is 500 fold.
Take `CCCS(=O)(=O)Nc1ccc(F)c(C(=O)c2c[nH]c3ncc(-c4ccc(Cl)cc4)cc23)c1F` [vemurafenib]: in assay [10], the “selectivity against B-RAF^V600E than its wild type” value is reported as 100 fold.

(Values after publication PMC9963398, “Discovery of New Quinolone-Based Diarylamides as Potent B-RAF^V600E/C-RAF Kinase Inhibitors Endowed with Promising In Vitro Anticancer Activity” (International Journal of Molecular Sciences, 2023).)
